Laboratory results taken from patent US11771705B2, “Adjuvant therapy for use in prostate cancer treatment” (priority 2017, dated 2023).
Read-outs that look alike come from different tables or passages of the source.

Tests used:
[1] = test system: adenocarcinoma of the prostate; assay: Estetrol in prostate cancer patients treated with ADT, randomized placebo controlled (Example 3); type: in vivo, male patients; conditions: GnRH agonist plus 40 mg estetrol per day oral, 24 weeks
Text: Male patients who have histologically confirmed adenocarcinoma of the prostate and who are qualifying for treatment with androgen deprivation therapy (ADT: GnRH agonist) are included. The study is randomized placebo controlled.
Randomisation takes place after a patient is found to be eligible at the baseline visit. Subjects receive the study medication for a period of 24 weeks in total.
Subjects receive blinded study medication (oral administration) as follows: • Investigational product: GnRH agonist plus 40 mg estetrol (E4) per day; • Placebo: GnRH agonist plus placebo.
Medication should be taken in the morning between 8:00-10:00 AM. All patients concomitantly receive a prophylactic dose of dabigatran (220 mg once daily) or another anticoagulant.
A total of 30 patients is being dosed as follows: 20 patient in the estetrol group and 10 patients in the reference therapy group (placebo).
The primary objective is to assess the additional effects of E4 on total T and free T. Secondary objectives include the assessment of the effects of E4 on SHBG, PSA response and lipids and lipoproteins. […]

[2] = 20 mg or 40 mg daily, cited from earlier work
[3] = type: in vivo, male patients; conditions: average of Day 7 and Day 14
Protocol: For each group dosed at 2, 10, 20, 40 and 60 mg estetrol daily (oral administration), 7 to 10 male patients were tested for their plasma content in estetrol at Day 7 and at Day 14. For each dose group, the average trough level of all patients across both days was calculated.

[4] = type: in vivo, healthy men
Protocol: A phase I, double-blind, randomised, placebo-controlled, multiple dose study to evaluate the safety, pharmacokinetics and pharmacodynamics of multiple dosages of estetrol in healthy men.
Male participants aged between 40 and 70 years were allocated to one of the following groups: • Group 1: 20 mg E4 (estetrol) or placebo; • Group 2: 40 mg E4 (estetrol) or placebo; • Group 3: 60 mg E4 (estetrol) or placebo.
A total of 15 subjects were assigned to each dose group: 10 subjects were randomised to receive the active treatment (E4), 5 subjects were randomised to receive placebo treatment. In total […] participated in this study.
Dosing began with Group 1. The other groups were dosed consecutively. Dose escalation to the next E4 dose group proceeded based on reported adverse events (AEs), SHBG levels, lipids and haemostatic parameters. The decision to continue with the next higher E4 dose level was made by the Investigator, an independent expert and the Sponsor.
E4 was supplied as tablets and taken orally every morning between 8:00-10:00 am, for 28 days. The total duration of the study, including screening was 84 days for each subject (Screening from Day −28 till Day −1, Clinical part from Day 1 till Day 56).
There were two primary outcome parameters in this study. First primary parameter was the safety evaluation of E4. Safety variables included vital signs, routine laboratory tests, physical examination, ECG measurement and monitoring of (S)AEs.
Second primary parameter was the hormones related to prostate function. FSH, LH, E2, total testosterone, free testosterone and sex hormone-binding globulin (SHBG) were measured.
Secondary parameters included other pharmacodynamic and pharmacokinetic parameters. The pharmacodynamic parameters which were assessed are the following: • Haemostatic factors: (extrinsic) APC-resistance, prothrombin fragment 1+2, free tissue factor pathway inhibitor (TFPI), antithrombin activity, protein S activity, D-dimer, angiotensinogen; • Lipids and lipoproteins: total cholesterol, triglycerides, HDL-cholesterol, LDL-cholesterol and lipoprotein(a) (Lp(a)); • Carbohydrates: fasting serum glucose; • Bone turnover markers: osteocalcin, type I collagen telopeptide (CTX-1) and parathyroid hormone (PTH); • Prostate-specific antigen (PSA).
Pharmacokinetics were evaluated by measuring E4 trough levels on Day 2, 7, 14 and 28. Furthermore, on Day 28 before and at several time points after dosing E4 concentrations were measured.

[5] = test system: adenocarcinoma of the prostate; assay: Estetrol on testosterone suppression and quality of life in prostate cancer patients treated with ADT (Example 4); type: in vivo, male patients; conditions: GnRH agonist plus 40 mg estetrol monohydrate p.o. per day, 24 weeks
Protocol: Male patients who have histologically confirmed adenocarcinoma of the prostate and who are qualifying for treatment with androgen deprivation therapy (ADT: GnRH agonist) participate in randomized placebo controlled study. Randomisation takes place after a patient is found to be eligible at the baseline visit. Subjects receive the study medication for a period of 24 weeks in total. Subjects receive blinded study medication: • Investigational product: GnRH agonist plus 40 mg estetrol monohydrate (E4) p.o. per day; • Placebo: GnRH agonist plus placebo. Selection of the GnRH agonist is left to the doctors treating the individual patients. Medication is taken in the morning between 8:00-10:00 AM. A total of 60 patients is dosed as follows: 40 patient in the estetrol group and 20 patients in the reference therapy group (placebo). Effects of medication on total T, free T, SHBG, hot flushes, PSA response, endocrine parameters, adrenal androgens and the lipid profile are assessed. Further assessed are the effects on health related quality of life (using the Functional Assessment of Cancer Therapy Prostate (FACT-P) questionnaire and a small questionnaire on the presence and absence of endocrine related symptoms (Q-man questionnaire)) and effects on bone turnover (bone markers).

[6] = Day 28 vs Day 1, 20, 40, 60 mg daily

C[C@]12CC[C@@H]3c4ccc(O)cc4CC[C@H]3[C@@H]1[C@@H](O)[C@@H](O)[C@@H]2O [estetrol]
Efficacy and quality of life of ADT treatment for prostate cancer [1]: effective therapy to improve efficacy and quality of life | Libido decreased during treatment ([2]; both cohorts): 8 of 20 | Nipple tenderness reported ([2]; both cohorts): 7 of 20 | Body weight and safety parameters ([2]; healthy men 40-70 years): did not change | Estradiol level ([2]; healthy men 40-70 years): decreased | FSH level ([2]; healthy men 40-70 years): decreased | Free testosterone level ([2]; healthy men 40-70 years): decreased | LH levels ([2]; healthy men 40-70 years): did not change | SHBG levels ([2]; healthy men 40-70 years): increased | Total testosterone level ([2]; healthy men 40-70 years): decreased | Trough plasma level ([3]; daily oral dose 2 mg): 198 pg/mL | Trough plasma level ([3]; daily oral dose 10 mg): 1056 pg/mL | Trough plasma level ([3]; daily oral dose 20 mg): 2187 pg/mL | Trough plasma level ([3]; daily oral dose 40 mg): 4417 pg/mL | Trough plasma level ([3]; daily oral dose 60 mg): 6157 pg/mL | HDL Cholesterol [4, 6]: small increase | Lowering effect on LDL Cholesterol [4, 6]: about 20% | TG (triglycerides) [4, 6]: no changes | Free testosterone level ([4]; Day 28 vs Day 1, 20, 40, 60 mg daily (FIG. 1A)): decreased | Total testosterone level ([4]; Day 28 vs Day 1, 20, 40, 60 mg daily (FIG. 1B)): decreased | SHBG level ([4]; Day 28 vs Day 1, 20, 40, 60 mg daily (FIG. 1C)): increase | LH level ([4]; Day 28 vs Day 1, 20, 40, 60 mg daily (FIG. 1D)): not much change | FSH levels ([4]; Day 28 vs Day 1, 20, 40, 60 mg daily (FIG. 1E)): decreased | Effects on bone (osteocalcin, CTX-1) ([4]; Day 28 vs Day 1, 20, 40, 60 mg daily (FIGS. 2I, 2J)): beneficial estrogenic effects | Changes in vital signs, ECG, physical examination and body weight ([4]; daily oral dose of 20 mg, 40 mg or 60 mg for 28 days): No clinically relevant changes | Tolerability ([4]; daily oral dose of 20 mg, 40 mg or 60 mg for 28 days, healthy men aged 40-70 years): well tolerated | LH levels after E4 administration ([4]; shortly after dosing, only for a few hours): decreased | Efficacy of ADT [5]: improves efficacy of ADT | Quality of life of the prostate cancer patients [5]: improves quality of life
